“And” between values parts separate entries of the source, which are not always exact repeats. Identical values can stand only once. Like-named read-outs stand apart in the source and are kept apart here.
Assays:
[1] = biological target: T1, CDK5/p25 (Homo sapiens, UniProt Q00535); assay: CDK5/p25 in vitro kinase assay (histone H1, [γ-33P] ATP); format: biochemical
T1 construct: made in house

[2] = biological target: CK1δ/ε; assay: CK1δ/ε in vitro kinase assay (CK1-specific peptide substrate); format: biochemical, Porcine; settings: 15 μM ATP, 30 min at 30 °C, triplicate; >10 = less than 50% inhibition at 10 µM
[3] = biological target: CLK1 (Homo sapiens, UniProt P49759); assay: CLK1 in vitro kinase assay (RS peptide); format: biochemical; settings: 15 μM ATP, 30 min at 30 °C, triplicate; >10 = less than 50% inhibition at 10 µM
[4] = biological target: DYRK1A (Rattus norvegicus, UniProt Q63470); assay: DYRK1A in vitro kinase assay (Woodtide); format: biochemical; settings: 15 μM ATP, 30 min at 30 °C, triplicate; >10 = less than 50% inhibition at 10 µM
[5] = biological target: GSK-3α/β; assay: GSK-3α/β in vitro kinase assay (GS-1 peptide); format: biochemical, Porcine; settings: 15 μM ATP, 30 min at 30 °C, triplicate; >10 = less than 50% inhibition at 10 µM
[6] = 15 μM ATP, 30 min at 30 °C, triplicate, >10 = less than 50% inhibition at 10 µM

Sequence of CLK1 (P49759 whole entry): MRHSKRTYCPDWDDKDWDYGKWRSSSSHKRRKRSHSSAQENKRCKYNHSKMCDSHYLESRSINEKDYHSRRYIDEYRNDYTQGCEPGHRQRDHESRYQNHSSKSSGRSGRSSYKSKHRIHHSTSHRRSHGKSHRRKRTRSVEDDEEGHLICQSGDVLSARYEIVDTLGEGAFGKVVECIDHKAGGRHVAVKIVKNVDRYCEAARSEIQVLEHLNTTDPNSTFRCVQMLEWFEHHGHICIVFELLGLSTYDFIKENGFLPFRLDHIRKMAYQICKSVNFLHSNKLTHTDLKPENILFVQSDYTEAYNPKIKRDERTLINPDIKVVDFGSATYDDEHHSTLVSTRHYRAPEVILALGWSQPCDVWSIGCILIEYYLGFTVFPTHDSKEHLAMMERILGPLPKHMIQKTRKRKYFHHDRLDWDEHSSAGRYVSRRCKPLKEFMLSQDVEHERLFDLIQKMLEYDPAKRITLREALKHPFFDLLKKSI
T1 sequence (Q00535 whole entry): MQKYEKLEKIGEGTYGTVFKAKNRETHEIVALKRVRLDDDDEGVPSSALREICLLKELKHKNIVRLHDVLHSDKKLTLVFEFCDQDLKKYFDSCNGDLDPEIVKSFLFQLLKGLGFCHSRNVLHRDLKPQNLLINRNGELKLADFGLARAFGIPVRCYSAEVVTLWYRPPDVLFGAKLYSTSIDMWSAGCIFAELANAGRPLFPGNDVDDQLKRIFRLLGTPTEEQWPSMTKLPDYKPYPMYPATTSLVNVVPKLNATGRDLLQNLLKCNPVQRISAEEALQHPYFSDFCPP
T1 sequence (Q15078 99-307 partner limits assumed): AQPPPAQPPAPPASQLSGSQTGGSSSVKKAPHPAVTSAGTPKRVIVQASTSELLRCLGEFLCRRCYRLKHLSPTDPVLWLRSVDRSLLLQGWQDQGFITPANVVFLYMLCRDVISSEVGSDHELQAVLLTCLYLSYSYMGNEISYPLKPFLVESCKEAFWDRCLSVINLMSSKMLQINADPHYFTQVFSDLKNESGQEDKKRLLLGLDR

Row | Compound | IC50 [1] | IC50 [2] | IC50 [3] | IC50 [4] | IC50 [5] | IC50 [1, 6]
1 | CN(C)c1ccc(Nc2nc3ccc4ncn(C5CC5)c(=O)c4c3s2)cc1 [Compound 8j, 8-Cyclopropyl-2-([4-(dimethylamino)phenyl]amino)thiazolo[5,4-f]quinazolin-9(8H)-one] | > 10 µM | > 10 µM | 1.3 to 7.3 µM and 1.3 µM | 1.3 to 7.3 µM and 2 µM | – | –
2 | N=C(NCc1ccccc1)c1nc2ccc3ncn(C4CC4)c(=O)c3c2s1 [Compound 17a, N-Benzyl-8-cyclopropyl-9-oxo-8,9-dihydrothiazolo[5,4-f]quinazoline-2-carboximidamide] | > 10 µM | > 10 µM | 1 µM | 0.67 µM | 0.4 µM | –
3 | N=C(c1nc2ccc3ncn(C4CC4)c(=O)c3c2s1)N1CCOCC1 [Compound 17e, 8-Cyclopropyl-2-[imino(morpholino)methyl]thiazolo[5,4-f]quinazolin-9(8H)-one] | – | 1.9 µM | 0.38 µM | 0.14 µM | 0.23 µM | > 10 µM
4 | O=c1c2c(ccc3nc(NCCN4CCOCC4)sc32)ncn1C1CC1 [Compound 14d, 8-Cyclopropyl-2-[(2-morpholinoethyl)amino]thiazolo[5,4-f]quinazolin-9(8H)-one] | > 10 µM | > 10 µM | 8.1 µM | 8.2 µM | ≥ 10 µM | –
5 | COc1cc2nc(Nc3ccc4ncn(C5CC5)c(=O)c4c3)sc2cc1OC [Compound 10l, 3-Cyclopropyl-6-((5,6-dimethoxybenzo[d]thiazol-2-yl)amino)quinazolin-4(3H)-one] | > 10 µM | > 10 µM | > 10 µM | > 10 µM | ≥ 10 µM | –
6 | CN(C)CC/N=C(\N)c1nc2ccc3ncn(C4CC4)c(=O)c3c2s1 [Compound 17b, (Z)-8-Cyclopropyl-N′-[2-(dimethylamino)ethyl]-9-oxo-8,9-dihydrothiazolo[5,4-f]quinazoline-2-carboximidamide] | > 10 µM | > 10 µM | 0.29 µM | 4.4 µM | 1.1 µM | –
7 | O=c1c2c(ccc3nc(N4CCCCC4)sc32)ncn1C1CC1 [Compound 14e, 8-Cyclopropyl-2-(piperidin-1-yl)thiazolo[5,4-f]quinazolin-9(8H)-one] | > 10 µM | > 10 µM | 5.3 µM | > 10 µM | ≥ 10 µM | –
8 | O=c1c2c(ccc3nc(Nc4ccccc4)sc32)ncn1C1CC1 [Compound 8a, 8-Cyclopropyl-2-(phenylamino)thiazolo[5,4-f]quinazolin-9(8H)-one] | > 10 µM | > 10 µM | 3.4 µM | > 10 µM | ≥ 10 µM | –
9 | O=c1c2c(ccc3nc(Nc4cccnc4)sc32)ncn1C1CC1 [Compound 8g, 8-Cyclopropyl-2-(pyridin-3-ylamino)thiazolo[5,4-f]quinazolin-9(8H)-one] | > 10 µM | > 10 µM | 1.7 µM | > 10 µM | ≥ 10 µM | –
10 | 8-Cyclopropyl-2-(piperidin-1-yl)thiazolo[5,4-f]quinazolin-9(8H)-one [Compound 14f] | – | > 10 µM | > 10 µM | > 10 µM | ≥ 10 µM | > 10 µM
11 | N/C(=N\CCN1CCOCC1)c1nc2ccc3ncn(C4CC4)c(=O)c3c2s1 [Compound 17c, (Z)-8-Cyclopropyl-N′-(2-morpholinoethyl)-9-oxo-8,9-dihydrothiazolo[5,4-f]quinazoline-2-carboximidamide] | > 10 µM | > 10 µM | 2.3 µM | 3.2 µM | 2.8 µM | –
12 | O=c1c2c(ccc3nc(NCCN4CCCCC4)sc32)ncn1C1CC1 [Compound 14c, 8-Cyclopropyl-2-([2-(piperidin-1-yl)ethyl]amino)thiazolo[5,4-f]quinazolin-9(8H)-one] | – | > 10 µM | > 10 µM | > 10 µM | ≥ 10 µM | > 10 µM
13 | CN(C)CCNc1nc2ccc3ncn(C4CC4)c(=O)c3c2s1 [Compound 14b, 8-Cyclopropyl-2-([2-(dimethylamino)ethyl]amino)thiazolo[5,4-f]quinazolin-9(8H)-one] | > 10 µM | > 10 µM | > 10 µM | > 10 µM | ≥ 10 µM | –
14 | COc1ccc2c(c1)[nH]c1c(C)nccc12 [Harmine, reference compound] | – | 1.5 µM | – | – | > 10 µM | –
15 | O=c1c2c(ccc3nc(NCc4ccccc4)sc32)ncn1C1CC1 [Compound 14a, 2-(Benzylamino)-8-cyclopropylthiazolo[5,4-f]quinazolin-9(8H)-one] | > 10 µM | > 10 µM | 3.4 µM | > 10 µM | > 10 µM | –
16 | O=c1c2cc(Nc3nc4ccccc4s3)ccc2ncn1C1CC1 [Compound 10a, 3-Cyclopropyl-6-[(benzo[d]thiazol-2-yl)amino]quinazolin-4(3H)-one] | > 10 µM | > 10 µM | 5.2 µM | 4.8 µM | ≥ 10 µM | –
17 | N/C(=N\CCN1CCCCC1)c1nc2ccc3ncn(C4CC4)c(=O)c3c2s1 [Compound 17d, (Z)-8-Cyclopropyl-9-oxo-N′-[2-(piperidin-1-yl)ethyl]-8,9-dihydrothiazolo[5,4-f]quinazoline-2-carboximidamide] | > 10 µM | > 10 µM | 2.1 µM | 2.9 µM | 3.9 µM | –
18 | N=C(c1nc2ccc3ncn(C4CC4)c(=O)c3c2s1)N1CCCCC1 [Compound 17f, 8-Cyclopropyl-2-[imino(piperidin-1-yl)methyl]thiazolo[5,4-f]quinazolin-9(8H)-one] | – | > 10 µM | 0.61 µM | 0.82 µM | 0.49 µM | > 10 µM

Source: publication PMC6272913, “Synthesis of Bioactive 2-(Arylamino)thiazolo[5,4-f]-quinazolin-9-ones via the Hügershoff Reaction or Cu- Catalyzed Intramolecular C-S Bond Formation” (Molecules, 2016)
